Results as given in patent US9737502B2, “Calebin A for hepatic steatosis” (SAMI LABS LIMITED, priority 2011, dated 2017).
Marks after values point to notes of the source that are not given here.

Columns and labels:
3T3-L1 preadipocytes = assay: Differentiation and adipogenesis of 3T3-L1 preadipocytes, Oil Red O (Example IV); format: cell-based, Mouse; conditions: 5, 10, 15, 20, 25 and 30 μM for 8 days
Description: Mouse 3T3-L1 pre-adipocytes purchased from the American Type Culture Collection (Rockville, Md.) were grown in Dulbecco's Modified Eagle's Medium (DMEM) supplemented with 2 mM glutamine (GIBCO BRL), 1% penicillin/streptomycin (10000 units of penicillin/mL and 10 mg streptomycin/mL) and 10% fetal calf serum (FCS) at 37° C. under a humidified 5% CO2 atmosphere. Briefly, cells were seeded into 24-well (2×10^4/mL) or 10 cm dish with DMEM containing 10% fetal bovine serum (FBS) to full confluence. […]
At the end of differentiation, cells were washed twice with phosphate-buffered saline (PBS), fixed with 10% formalin for 60 min, stained with 0.5% Oil Red O in isopropanol for 1 h at room temperature. […] To quantify lipid accumulation, the stained lipid droplets were dissolved in isopropanol and the absorbance was measured at 520 nm.
Differentiation of 3T3-L1 preadipocytes stained with Oil Red O and photographed (upper and middle). 3T3-L1 preadipocytes were incubated with MDI (DMEM with IBMX, DEX, and insulin) for 2 days and then replaced with DMEM containing insulin with or without Calebin A (0, 5, 10, 15, 20, 25 and 30 μM), respectively, for 8 days, Lipid content was extracted from Oil Red O stained cells by 2-propanol and quantified by spectrophotometric analysis at 520 nm.

[1] = Study 2: body weight and liver weight in high fat diet induced obese mice; format: in vivo, C57 mice; conditions: for LIVER WEIGHT: male group, Day 57, High fat diet Control 1.60 ± 0.35
Excerpt: The animals were fed ad libitum with AMRUT Laboratory Animal Feed manufactured by Pranav Agro Industries Limited, Sangli, Maharastra throughout the acclimatization. Open Source Diet D12450B diet (with 10 kcal % Fat) and Open Source Diet D12492 High fat diet (with 60 kcal % Fat) manufactured by Research Diet Inc, USA procured from Indus Marketing, Hyderabad, Andhra Pradesh, INDIA was used for induction of obesity and the main study.
The animals were divided into 5 groups viz., Group 1, 2, 3, 4 and 5 consisting of 10 animals (5 male and 5 female) each.
The G1 Control group animals were fed with normal control diet feed D12450B containing 10 kcal % fat and the G2 to G5 group animals were fed with high fat diet feed D12492 containing 60 kcal % fat during the induction of obesity and during main study.
The main study was started after the induction of obesity. The 3 doses of Calebin A was administered to animals from Day 29 daily consecutively for a period of 28 days. The feeding of diets continued in the main study in a similar way as performed in induction of obesity. The G1 Control and G2 High fat diet control group animals were administered with 0.5% CMC (Carboxy Methyl Cellulose) while other group animals received test item from Day 29 to Day 56 of the study period. The dose volume of administration was maintained according to the weekly body weight of individual animals. The total duration of the study was 61 days (5 days Acclimatization period+28 days Induction of obesity+28 days Main study).
Individual animal body weights were recorded on the day of receipt on Day 1 and weekly (±1 day) thereafter during the study period.
Further, after completion of the study period (Day 57) the animals were humanely sacrificed by exposure to excess CO2 in gas chamber and organ weights were noted. The brain, thymus, liver, adrenals, kidneys (paired), spleen, heart and ovaries/testes (paired) from all animals were trimmed off any adherent tissue, as appropriate and weighed wet as soon as possible to avoid drying. While in general, there was no statistically significant difference in organ weights in males and females, organ specific improvements in weight, example for liver in the male group was observable (See TABLE X). […] It may be noted that Behnke, A. R. 1953. Lean body mass. A.M.A. Arch. Int. Med. 91, 585 indicates liver as an index of lean body mass promotion and H. F. Kraybill et al, J ANIM SCI 1954, 13:548-555 indicate that other visceral organs may also be equally predictive of lean body mass promotion. It is quite possible that statistical significance in terms of sustainable increase in organ weights without indications of toxicity may be achieved with a larger sample size (more number of tested animals) over extended testing periods.

## COc1cc(/C=C/C(=O)COC(=O)/C=C/c2ccc(O)c(OC)c2)ccc1O [Calebin A]
3T3-L1 preadipocytes
  differentiation and adipogenesis of 3T3-L1 preadipocytes: inhibits
[1]; females, G3 5 mg/kg + High fat diet, Day 1 (obesity induction, before dosing)
  BODY WEIGHT: 22.36 ± 0.65 grams
[1]; females, G3 5 mg/kg + High fat diet, Day 8 (obesity induction, before dosing)
  BODY WEIGHT: 23.18 ± 0.79 grams
[1]; females, G3 5 mg/kg + High fat diet, Day 15 (obesity induction, before dosing)
  BODY WEIGHT: 24.36 ± 0.87 grams
[1]; females, G3 5 mg/kg + High fat diet, Day 22 (obesity induction, before dosing)
  BODY WEIGHT: 25.66 ± 0.48 grams
[1]; females, G3 5 mg/kg + High fat diet, Day 29 (start of daily dosing)
  BODY WEIGHT: 27.40*^a ± grams
[1]; females, G3 5 mg/kg + High fat diet, Day 36 (dosing Day 29-56)
  BODY WEIGHT: 28.18**^a ± grams
[1]; females, G3 5 mg/kg + High fat diet, Day 43 (dosing Day 29-56)
  BODY WEIGHT: 28.46*^a,**^b ± grams
[1]; females, G3 5 mg/kg + High fat diet, Day 50 (dosing Day 29-56)
  BODY WEIGHT: 28.20***^b ± grams
[1]; females, G3 5 mg/kg + High fat diet, Day 56 (dosing Day 29-56)
  BODY WEIGHT: 28.12***^b ± grams
[1]; females, G4 10 mg/kg + High fat diet, Day 1 (obesity induction, before dosing)
  BODY WEIGHT: 23.16 ± 0.99 grams
[1]; females, G4 10 mg/kg + High fat diet, Day 8 (obesity induction, before dosing)
  BODY WEIGHT: 24.16 ± 1.29 grams
[1]; females, G4 10 mg/kg + High fat diet, Day 15 (obesity induction, before dosing)
  BODY WEIGHT: 25.62 ± 1.26 grams
[1]; females, G4 10 mg/kg + High fat diet, Day 22 (obesity induction, before dosing)
  BODY WEIGHT: 26.76 ± 1.27 grams
[1]; females, G4 10 mg/kg + High fat diet, Day 29 (start of daily dosing)
  BODY WEIGHT: 28.46***^a ± grams
[1]; females, G4 10 mg/kg + High fat diet, Day 36 (dosing Day 29-56)
  BODY WEIGHT: 28.64***^a ± grams
[1]; females, G4 10 mg/kg + High fat diet, Day 43 (dosing Day 29-56)
  BODY WEIGHT: 28.16*^a,***^b ± grams
[1]; females, G4 10 mg/kg + High fat diet, Day 50 (dosing Day 29-56)
  BODY WEIGHT: 27.54***^b ± grams
[1]; females, G4 10 mg/kg + High fat diet, Day 56 (dosing Day 29-56)
  BODY WEIGHT: 27.04***^b ± grams
[1]; females, G5 20 mg/kg + High fat diet, Day 1 (obesity induction, before dosing)
  BODY WEIGHT: 23.52 ± 1.10 grams
[1]; females, G5 20 mg/kg + High fat diet, Day 8 (obesity induction, before dosing)
  BODY WEIGHT: 24.66 ± 1.24 grams
[1]; females, G5 20 mg/kg + High fat diet, Day 15 (obesity induction, before dosing)
  BODY WEIGHT: 26.26 ^a ± 1.05 ^ grams
[1]; females, G5 20 mg/kg + High fat diet, Day 22 (obesity induction, before dosing)
  BODY WEIGHT: 27.26 ^a ± 1.25 ^ grams
[1]; females, G5 20 mg/kg + High fat diet, Day 29 (start of daily dosing)
  BODY WEIGHT: 28.74***^a ± grams
[1]; females, G5 20 mg/kg + High fat diet, Day 36 (dosing Day 29-56)
  BODY WEIGHT: 28.40**^a ± grams
[1]; females, G5 20 mg/kg + High fat diet, Day 43 (dosing Day 29-56)
  BODY WEIGHT: 27.80***^b ± grams
[1]; females, G5 20 mg/kg + High fat diet, Day 50 (dosing Day 29-56)
  BODY WEIGHT: 27.44***^b ± grams
[1]; females, G5 20 mg/kg + High fat diet, Day 56 (dosing Day 29-56)
  BODY WEIGHT: 27.10***^b ± grams
[1]; male and female C57 animals, 5, 10 and 20 mg/kg body weight
  effect on body weights of high fat diet induced obese animals: had an effect in decreasing the body weights
[1]; G3 5 mg/kg + High fat diet
  LIVER WEIGHT: 1.41 ± 0.17 g
[1]; G4 10 mg/kg + High fat diet
  LIVER WEIGHT: 1.25 ± 0.17 g
[1]; G5 20 mg/kg + High fat diet
  LIVER WEIGHT: 1.79 ± 0.19 g
[1]; males, G3 5 mg/kg + High fat diet, Day 1 (obesity induction, before dosing)
  BODY WEIGHT: 25.02 ± 1.45 grams
[1]; males, G3 5 mg/kg + High fat diet, Day 8 (obesity induction, before dosing)
  BODY WEIGHT: 25.78 ± 1.14 grams
[1]; males, G3 5 mg/kg + High fat diet, Day 15 (obesity induction, before dosing)
  BODY WEIGHT: 27.68 ± 0.95 grams
[1]; males, G3 5 mg/kg + High fat diet, Day 22 (obesity induction, before dosing)
  BODY WEIGHT: 29.98**^a ± 1.03 grams
[1]; males, G3 5 mg/kg + High fat diet, Day 29 (start of daily dosing)
  BODY WEIGHT: 30.92**^a ± grams
[1]; males, G3 5 mg/kg + High fat diet, Day 36 (dosing Day 29-56)
  BODY WEIGHT: 31.70*^a ± grams
[1]; males, G3 5 mg/kg + High fat diet, Day 43 (dosing Day 29-56)
  BODY WEIGHT: 30.84***^b ± grams
[1]; males, G3 5 mg/kg + High fat diet, Day 50 (dosing Day 29-56)
  BODY WEIGHT: 30.04***^b ± grams
[1]; males, G3 5 mg/kg + High fat diet, Day 56 (dosing Day 29-56)
  BODY WEIGHT: 29.98***^b ± grams
[1]; males, G4 10 mg/kg + High fat diet, Day 1 (obesity induction, before dosing)
  BODY WEIGHT: 25.28 ± 0.88 grams
[1]; males, G4 10 mg/kg + High fat diet, Day 8 (obesity induction, before dosing)
  BODY WEIGHT: 25.82 ± 0.91 grams
[1]; males, G4 10 mg/kg + High fat diet, Day 15 (obesity induction, before dosing)
  BODY WEIGHT: 27.58 ± 0.65 grams
[1]; males, G4 10 mg/kg + High fat diet, Day 22 (obesity induction, before dosing)
  BODY WEIGHT: 29.92**^a ± 0.97 grams
[1]; males, G4 10 mg/kg + High fat diet, Day 29 (start of daily dosing)
  BODY WEIGHT: 31.02**^a ± grams
[1]; males, G4 10 mg/kg + High fat diet, Day 36 (dosing Day 29-56)
  BODY WEIGHT: 31.06*^b ± grams
[1]; males, G4 10 mg/kg + High fat diet, Day 43 (dosing Day 29-56)
  BODY WEIGHT: 29.80***^b ± grams
[1]; males, G4 10 mg/kg + High fat diet, Day 50 (dosing Day 29-56)
  BODY WEIGHT: 28.98***^b ± grams
[1]; males, G4 10 mg/kg + High fat diet, Day 56 (dosing Day 29-56)
  BODY WEIGHT: 28.62***^b ± grams
[1]; males, G5 20 mg/kg + High fat diet, Day 1 (obesity induction, before dosing)
  BODY WEIGHT: 25.88 ± 1.25 grams
[1]; males, G5 20 mg/kg + High fat diet, Day 8 (obesity induction, before dosing)
  BODY WEIGHT: 26.66 ± 1.73 grams
[1]; males, G5 20 mg/kg + High fat diet, Day 15 (obesity induction, before dosing)
  BODY WEIGHT: 28.94*^a ± 1.59^ grams
[1]; males, G5 20 mg/kg + High fat diet, Day 22 (obesity induction, before dosing)
  BODY WEIGHT: 30.64**^a ± 1.16 grams
[1]; males, G5 20 mg/kg + High fat diet, Day 29 (start of daily dosing)
  BODY WEIGHT: 31.86***^a ± grams
[1]; males, G5 20 mg/kg + High fat diet, Day 36 (dosing Day 29-56)
  BODY WEIGHT: 31.48*^b ± grams
[1]; males, G5 20 mg/kg + High fat diet, Day 43 (dosing Day 29-56)
  BODY WEIGHT: 29.12***^b ± grams
[1]; males, G5 20 mg/kg + High fat diet, Day 50 (dosing Day 29-56)
  BODY WEIGHT: 27.74***^b ± grams
[1]; males, G5 20 mg/kg + High fat diet, Day 56 (dosing Day 29-56)
  BODY WEIGHT: 27.54***^b ± grams
